According to article PMC7167818, “Addition of K22 Converts Spider Venom Peptide Pme2a from an Activator to an Inhibitor of NaV1.7” (Biomedicines, 2020):
“Also recorded” adds a separate entry of the source. Bridge positions count the residues as written; N and C are the ends. Peptide text beside a SMILES is read from it.

Experiments:
hNaV1.7/β1 [1] = target: T1, hNaV1.7/β1 (Homo sapiens, UniProt Q15858); assay: Whole-cell automated patch-clamp, peak current at hNaV1.7; type: cell-based
Experimental: (§1) Human Embryonic Kidney (HEK) 293 cells stably expressing human NaV1.7/β1 (SB Drug Discovery, Glasgow, UK) were cultured in Minimum Essential Medium (MEM) supplemented with 10% fetal bovine serum (FBS), 2 mM L-glutamine, and the selection antibiotics G-418 (0.6 mg/mL) and blasticidin (4 μg/mL), as recommended by the manufacturer. Chinese Hamster Ovary (CHO) cells stably expressing human NaV1.8/β3 in a tetracycline-inducible system (ChanTest, Cleveland, OH, USA) were cultured in MEM supplemented with 10% FBS and 2 mM L-glutamine. Expression of hNaV1.8 was induced by the addition of tetracycline (1 μg/mL) for 48–72 h prior to assays. HEK293 cells stably expressing rat transient receptor potential vanilloid 1 (TRPV1) were cultured in Dulbecco’s Modified Eagle Medium (DMEM) containing 10% FBS under selection with hygromycin B (100 μg/mL), generated as previously described. Cells were grown in an incubator at 37 °C with 5% CO2 and passaged every 3–4 days (at 70%–80% confluency) using TrypLE Express (Thermo Fisher Scientific, Scoresby, VIC, Australia).
(§2) Whole-cell patch-clamp experiments in NaV1.7-HEK cells and NaV1.8-CHO cells were performed on a QPatch-16 automated electrophysiology platform (Sophion Bioscience, Ballerup, Denmark) as previously described. The extracellular solution contained in mM: NaCl 140, KCl 4, CaCl2 2, MgCl2 1, HEPES 10 and glucose 10; pH 7.4; osmolarity 305 mOsm. The intracellular solution contained in mM: CsF 140, EGTA/CsOH 1/5, HEPES 10 and NaCl 10; pH 7.3 with CsOH; osmolarity 320 mOsm. Concentration–response curves were acquired using a holding potential of −90 mV and a 50 ms pulse to −20 mV (for NaV1.7) or +10 mV (for NaV1.8) every 20 s (0.05 Hz). Peptides were diluted in extracellular solution with 0.1% BSA and each peptide concentration was incubated for 5 min. Peak current was normalized to buffer control. The time constant of fast inactivation (τ) was computed by fitting the current decay traces with a single exponential function using the QPatch Assay Software 5.6 (Sophion). […]
(§3) Data were plotted and analysed using GraphPad Prism, version 8.2.0. […]

hNaV1.8/β3 = assay: Whole-cell automated patch-clamp, peak current at hNaV1.8; type: cell-based, human; conditions: 10 μM; 5 min incubation; QPatch-16; holding −90 mV, 50 ms pulse to +10 mV every 20 s; 0.1% BSA; mean ± SEM
Experimental: as §1
(§4) Whole-cell patch-clamp experiments in NaV1.7-HEK cells and NaV1.8-CHO cells were performed on a QPatch-16 automated electrophysiology platform (Sophion Bioscience, Ballerup, Denmark) as previously described. […]
as §3

hNaV1.7/β1 [2] = target: T1, hNaV1.7/β1; assay: Time constant of fast inactivation (τ) at hNaV1.7 (patch-clamp); type: cell-based; conditions: holding −90 mV, 50 ms pulse to −20 mV, n = 4 cells per data point
Experimental: as §1, §2, §3

rTRPV1 = target: T2, rTRPV1 (Rattus norvegicus, UniProt O35433); assay: Calcium responses in TRPV1-HEK cells (FLIPR); type: cell-based
T2 construct: expressed in transfected cells
T2 sequence (O35433 whole entry): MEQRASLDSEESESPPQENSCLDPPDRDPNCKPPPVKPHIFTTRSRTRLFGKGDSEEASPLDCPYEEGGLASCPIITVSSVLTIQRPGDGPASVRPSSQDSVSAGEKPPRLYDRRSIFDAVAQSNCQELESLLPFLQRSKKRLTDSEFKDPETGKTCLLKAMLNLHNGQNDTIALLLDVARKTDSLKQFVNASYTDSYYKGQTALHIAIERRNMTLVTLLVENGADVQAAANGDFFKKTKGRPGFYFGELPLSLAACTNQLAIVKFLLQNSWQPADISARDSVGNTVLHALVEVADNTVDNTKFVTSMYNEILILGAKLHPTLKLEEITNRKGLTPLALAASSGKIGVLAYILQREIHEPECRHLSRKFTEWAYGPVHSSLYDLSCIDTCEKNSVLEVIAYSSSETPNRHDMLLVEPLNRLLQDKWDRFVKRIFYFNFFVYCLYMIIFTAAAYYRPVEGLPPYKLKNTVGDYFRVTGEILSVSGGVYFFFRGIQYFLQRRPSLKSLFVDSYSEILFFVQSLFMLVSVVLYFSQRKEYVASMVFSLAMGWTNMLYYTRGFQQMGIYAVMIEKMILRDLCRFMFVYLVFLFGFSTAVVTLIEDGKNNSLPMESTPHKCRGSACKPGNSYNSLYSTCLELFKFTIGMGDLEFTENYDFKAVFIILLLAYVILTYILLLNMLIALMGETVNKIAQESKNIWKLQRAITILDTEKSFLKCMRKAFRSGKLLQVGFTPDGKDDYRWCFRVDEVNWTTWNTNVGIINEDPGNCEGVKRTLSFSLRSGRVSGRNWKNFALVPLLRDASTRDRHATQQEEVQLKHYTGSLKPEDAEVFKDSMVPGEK
Experimental: HEK293 cells stably expressing rat transient receptor potential vanilloid 1 (TRPV1) were cultured in Dulbecco’s Modified Eagle Medium (DMEM) containing 10% FBS under selection with hygromycin B (100 μg/mL), generated as previously described [16]. Cells were grown in an incubator at 37 °C with 5% CO2 and passaged every 3–4 days (at 70%–80% confluency) using TrypLE Express (Thermo Fisher Scientific, Scoresby, VIC, Australia).
HEK cells stably expressing rTRPV1 were plated 48 h before the assay on 384-well black-walled imaging plates coated with poly D-lysine (ViewPlate-384, Perkin Elmer, Victoria, Australia) at a density of 10,000–15,000 cells/well and loaded with Calcium 4 no-wash dye (Molecular Devices) diluted in PSS and incubated for 30 min at 37 °C. […] Changes in fluorescence were assessed using the FLIPR^TETRA (excitation 470–495 nm, emission 515–575 nm) every 1 s for 300 s after the addition of compounds. Fluorescence responses were quantified by the maximum increase in fluorescence calculated using ScreenWorks 3.2.0.14.
Data were plotted and analysed using GraphPad Prism, version 8.2.0. For concentration–response curves, a four-parameter Hill equation with variable Hill coefficient was fitted to the data. Data are presented as the mean ± SEM.

hNaV1.7/β1 [3] = target: T1, hNaV1.7/β1; assay: Voltage dependence of activation at hNaV1.7 (conductance-voltage curves, patch-clamp); type: cell-based; conditions: 1 μM, 5 min incubation; holding −90 mV, 500 ms steps −110 to +55 mV in 5 mV increments; Boltzmann fit; n = 3–6 cells per data point
Experimental: as §1, §4, §3

T1 sequence (Q07699 19-218): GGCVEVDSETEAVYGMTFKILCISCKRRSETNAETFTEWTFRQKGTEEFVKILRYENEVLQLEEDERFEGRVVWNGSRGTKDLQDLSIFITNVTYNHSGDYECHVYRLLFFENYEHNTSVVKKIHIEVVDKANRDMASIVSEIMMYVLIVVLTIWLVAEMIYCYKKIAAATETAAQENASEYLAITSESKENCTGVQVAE
T1 sequence (Q15858 whole entry): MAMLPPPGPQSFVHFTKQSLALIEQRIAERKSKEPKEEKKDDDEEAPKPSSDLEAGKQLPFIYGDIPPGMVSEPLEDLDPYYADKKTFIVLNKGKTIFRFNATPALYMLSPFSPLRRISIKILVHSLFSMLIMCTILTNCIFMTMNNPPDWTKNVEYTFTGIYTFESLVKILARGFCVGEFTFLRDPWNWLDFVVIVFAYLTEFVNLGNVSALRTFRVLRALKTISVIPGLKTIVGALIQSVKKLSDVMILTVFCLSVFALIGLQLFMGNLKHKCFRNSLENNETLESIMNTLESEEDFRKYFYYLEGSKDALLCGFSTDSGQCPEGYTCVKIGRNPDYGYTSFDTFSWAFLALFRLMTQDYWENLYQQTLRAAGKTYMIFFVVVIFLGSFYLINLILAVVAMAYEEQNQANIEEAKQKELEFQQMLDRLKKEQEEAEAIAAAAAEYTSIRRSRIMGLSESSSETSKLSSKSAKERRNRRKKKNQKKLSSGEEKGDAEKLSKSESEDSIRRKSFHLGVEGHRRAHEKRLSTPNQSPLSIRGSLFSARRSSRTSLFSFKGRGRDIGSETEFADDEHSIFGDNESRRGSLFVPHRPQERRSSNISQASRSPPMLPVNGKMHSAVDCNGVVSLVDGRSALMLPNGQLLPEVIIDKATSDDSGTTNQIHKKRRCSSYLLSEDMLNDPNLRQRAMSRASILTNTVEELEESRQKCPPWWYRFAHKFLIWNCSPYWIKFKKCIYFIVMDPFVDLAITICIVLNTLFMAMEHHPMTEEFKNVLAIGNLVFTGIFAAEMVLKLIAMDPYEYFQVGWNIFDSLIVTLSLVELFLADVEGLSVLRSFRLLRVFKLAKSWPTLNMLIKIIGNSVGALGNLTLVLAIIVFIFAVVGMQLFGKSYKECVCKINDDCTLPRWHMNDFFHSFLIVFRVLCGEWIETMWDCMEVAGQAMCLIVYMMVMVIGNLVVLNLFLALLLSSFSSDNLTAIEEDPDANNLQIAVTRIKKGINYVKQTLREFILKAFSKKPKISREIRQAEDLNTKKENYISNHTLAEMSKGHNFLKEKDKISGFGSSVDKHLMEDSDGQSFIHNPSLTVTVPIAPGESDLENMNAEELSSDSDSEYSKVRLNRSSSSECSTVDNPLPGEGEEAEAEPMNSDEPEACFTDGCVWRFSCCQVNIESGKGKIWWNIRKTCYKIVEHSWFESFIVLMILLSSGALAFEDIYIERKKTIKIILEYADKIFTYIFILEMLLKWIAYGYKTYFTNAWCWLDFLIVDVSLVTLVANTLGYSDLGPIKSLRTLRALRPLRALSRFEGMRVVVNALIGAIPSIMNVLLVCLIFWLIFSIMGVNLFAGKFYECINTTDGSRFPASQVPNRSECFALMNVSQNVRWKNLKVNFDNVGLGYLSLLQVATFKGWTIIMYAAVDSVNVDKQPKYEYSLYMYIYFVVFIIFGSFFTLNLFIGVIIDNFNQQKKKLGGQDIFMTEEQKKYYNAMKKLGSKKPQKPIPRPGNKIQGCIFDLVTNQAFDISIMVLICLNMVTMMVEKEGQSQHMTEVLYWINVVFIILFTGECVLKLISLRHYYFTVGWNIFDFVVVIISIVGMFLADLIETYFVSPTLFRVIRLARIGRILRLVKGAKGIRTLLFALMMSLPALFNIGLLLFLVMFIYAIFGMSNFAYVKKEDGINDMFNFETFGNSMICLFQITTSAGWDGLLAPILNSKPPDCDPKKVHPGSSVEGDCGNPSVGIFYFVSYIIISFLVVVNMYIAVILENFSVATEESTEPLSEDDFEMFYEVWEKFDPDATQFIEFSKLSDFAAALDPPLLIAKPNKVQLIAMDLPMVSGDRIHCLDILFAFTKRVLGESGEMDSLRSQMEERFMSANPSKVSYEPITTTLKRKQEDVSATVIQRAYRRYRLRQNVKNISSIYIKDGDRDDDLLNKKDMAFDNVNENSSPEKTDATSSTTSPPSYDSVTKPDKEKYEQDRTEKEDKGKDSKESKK

SMILES | EC50 (hNaV1.7/β1 [1]; abstract, QPatch-16, holding −90 mV, 50 ms pulse to −20 mV, read-out: EC50 as given in abstract: delays fast inactivation and inhibits NaV1.7 peak current) | pharmacology at NaV1.7 (activator / inhibitor) (hNaV1.7/β1 [1]; authors' summary in discussion) | inhibition of peak current at NaV1.8 (hNaV1.8/β3) | EC50 (hNaV1.7/β1 [2]; 5 min incubation, τ from single exponential fit, read-out: estimated EC50 (delay of fast inactivation)) | effect on fast inactivation (hNaV1.7/β1 [2]) | activity at TRPV1 (rTRPV1; rTRPV1-HEK293, data not shown, concentration not given) | IC50 (hNaV1.7/β1 [1]; 5 min incubation per concentration, QPatch-16, holding −90 mV, 50 ms pulse to −20 mV every 20 s, 0.1% BSA, mean ± SEM, n = 3–6 cells per data point, read-out: IC50 (inhibition of NaV1.7 peak current)) | shift of V1/2 of voltage dependence of activation (Δ) (hNaV1.7/β1 [3]) | activity on TRPV1 (rTRPV1; rTRPV1-HEK293, Calcium 4 dye, up to 30 μM, n = 3–5 wells per data point)
CSCC[C@@H]1NC(=O)[C@H](Cc2ccccc2)NC(=O)[C@H](CCCCN)NC(=O)[C@H]([C@@H](C)O)NC(=O)[C@@H](NC(=O)CN)CSSC[C@@H]2NC(=O)[C@@H]3CSSC[C@@H](C(=O)NCC(=O)N[C@@H](Cc4c[nH]c5ccccc45)C(=O)N[C@@H](CC(=O)O)C(=O)NCC(=O)N[C@H](C(=O)N[C@@H](Cc4ccccc4)C(N)=O)[C@@H](C)O)NC(=O)[C@H](Cc4c[nH]c5ccccc45)NC(=O)[C@H](CCCCN)NC(=O)[C@H](Cc4ccc(O)cc4)NC(=O)[C@H](CCCCN)NC(=O)[C@H](Cc4ccc(O)cc4)NC(=O)[C@H](CSSC[C@H](NC(=O)[C@H](CO)NC(=O)CNC1=O)C(=O)N[C@@H](CCCCN)C(=O)N[C@@H]([C@@H](C)O)C(=O)N[C@@H](CC(=O)O)C(=O)N[C@@H](C)C(=O)N[C@@H](CC(=O)O)C(=O)N3)NC(=O)[C@H](CCC(=O)O)NC(=O)[C@H](CC(C)C)NC(=O)[C@H](Cc1c[nH]cn1)NC(=O)[C@H](CCC(=O)O)NC2=O [Pme2a] (H-GCTKFMGSCKTDADCCEHLECYKYKWCGWDGTF-NH2; disulfide 2-16, 9-21, 15-27 (inferred); N-terminus assumed) | > 10 µM | NaV1.7 channel activator | 22 ± 4% | > 10 µM | concentration-dependently delaying-fast inactivation; also recorded: concentration-dependently increases the time constant of fast inactivation (τ) | no activity |  |  | 
CSCC[C@@H]1NC(=O)[C@H](Cc2ccccc2)NC(=O)[C@H](CCCCN)NC(=O)[C@H]([C@@H](C)O)NC(=O)[C@@H](NC(=O)CN)CSSC[C@@H]2NC(=O)[C@@H]3CSSC[C@@H](C(=O)NCC(=O)N[C@@H](Cc4c[nH]c5ccccc45)C(=O)N[C@@H](CC(=O)O)C(=O)NCC(=O)N[C@H](C(=O)N[C@@H](Cc4ccccc4)C(N)=O)[C@@H](C)O)NC(=O)[C@H](Cc4c[nH]c5ccccc45)NC(=O)[C@H](CCCCN)NC(=O)[C@H](Cc4ccc(O)cc4)NC(=O)[C@H](CCCCN)NC(=O)[C@H](Cc4ccc(O)cc4)NC(=O)[C@H](CCCCN)NC(=O)[C@H](CSSC[C@H](NC(=O)[C@H](CO)NC(=O)CNC1=O)C(=O)N[C@@H](CCCCN)C(=O)N[C@@H]([C@@H](C)O)C(=O)N[C@@H](CC(=O)O)C(=O)N[C@@H](C)C(=O)N[C@@H](CC(=O)O)C(=O)N3)NC(=O)[C@H](CCC(=O)O)NC(=O)[C@H](CC(C)C)NC(=O)[C@H](Cc1c[nH]cn1)NC(=O)[C@H](CCC(=O)O)NC2=O [[+22K]Pme2a] (H-GCTKFMGSCKTDADCCEHLECKYKYKWCGWDGTF-NH2; disulfide 2-16, 9-21, 15-28 (inferred); N-terminus assumed) |  |  |  |  | removed the effect of the native peptide on fast inactivation; also recorded: without the delay in fast activation seen with the native peptide |  |  |  | 
CSCC[C@@H]1NC(=O)[C@H](CCCCN)NC(=O)[C@@H]2CSSC[C@@H]3NC(=O)CNC(=O)CNC(=O)[C@H](CC(C)C)NC(=O)[C@H](Cc4ccccc4)NC(=O)[C@H](Cc4ccc(O)cc4)NC(=O)[C@H](CCCNC(=N)N)NC(=O)[C@@H](NC(=O)CNC(=O)CN)CSSC[C@H](NC(=O)[C@H](CSSC[C@@H](C(=O)N[C@@H](C)C(=O)N[C@@H](Cc4c[nH]c5ccccc45)C(=O)N[C@@H](CC(=O)O)C(=O)NCC(=O)N[C@H](C(=O)N[C@@H](Cc4ccccc4)C(N)=O)[C@@H](C)O)NC(=O)[C@H](Cc4ccc(O)cc4)NC(=O)[C@H](CC(N)=O)NC(=O)[C@H](CC(C)C)NC(=O)CNC1=O)NC(=O)[C@H](CC(=O)O)NC(=O)[C@H](CO)NC(=O)[C@H](Cc1c[nH]cn1)NC(=O)[C@H](CCC(=O)O)NC(=O)[C@H](CO)NC3=O)C(=O)N[C@@H](CCC(=O)O)C(=O)N[C@@H](Cc1c[nH]cn1)C(=O)N[C@@H](CC(C)C)C(=O)N[C@@H](CCCNC(=N)N)C(=O)N2 [Pme1a] (H-GGCRYFLGGCSEHSDCCEHLRCKMGLNYCAWDGTF-NH2; disulfide 3-17, 10-22, 16-29 (inferred); N-terminus assumed) |  |  | 21 ± 2% |  |  |  | 0.334 ± 0.114 µM | +11.6 mV | no activity
